For one test, the system named is IL23-p19. As to the kind of experiment: Compound screening using DC cells: LPS-induced IL-23 (p19/p40) ELISA in IFNγ-primed dendritic cells differentiated from human PBMC. Format: cell-based. The following applies: Dendritic cell, human PBMC-derived dendritic cells, LPS 1 μg/ml, 18 hours, 10 pt. How it is done: Compound Screening Using DC Cells
Human PBMC cells (400 million) obtained from the vendor were transferred into a T-175 flask containing 15 ml RPMI media (10% FBS) and incubate for 2 hours at 37° C. After 2 hours, the media including floating cells was aspirated out carefully and 12 ml of fresh RPMI media (10% FBS) containing GMCSF (100 ng/ml) and IL4 (20 ng/ml) was added, and the flask was kept in a 37° C. incubator for 7 days.
After 3 days, fresh GMCSF (100 ng/ml) and IL4 (20 ng/ml) were added to the flask and the incubation continued. After 7 days, the fully differentiated cells were harvested by spinning down (1200 rpm/5 min) and aspirating the media. The cells were suspended in fresh RPMI media (10% FBS) containing 50 ng/ml IFNγ (1000 U/ml) and then plated (50K/well in 100 μl) onto a white clear bottom 96 well plate and left in a 37° C. incubator for 24 hours.
After 24 hours incubation, 100 μl of RPMI media was added containing 2× concentrated test compound per well to the above cell-culture media (final concentration becomes 1×) and the plates were pre-incubated for 1 hour at 37° C. before stimulating with LPS.
After 1 hour compound pre-incubation, 10 μl per well of 20× concentrated LPS solution in RPMI media was added to give a final concentration of 1 μg/ml. The mixture was shaken and incubated the plates at 37° C. for an additional 18 hours.
155 μl of the supernatant was harvested from each well carefully (without the tip touching the bottom of the well) and to the remaining 50 μl/well of the cell culture plate was added 50 μl of Cell Titer Glo reagent. The mixture was incubated for 1-2 minutes on a shaker and the plate was read for luminescence intensity to determine the compound cytotoxicity. The cell culture supernatant collected above was used to carry out IL23 ELISA (65 μl—Supernatant) and IL10 ELISA (90 μl—Supernatant) as described below.
Human IL-23 (p19/p40) ELISA Protocol (e-Biosciences)
To 10.5 ml PBS add 50 μl of anti-IL23 (p19) was added capture antibody (2.5 μg/ml). The mixture was mixed well and 100 μl of the coating solution was added to each well of the 96 well white plates from Pierce. The wells were covered and incubated overnight at 4° C.
The anti-IL23 (p19)-antibody-coated plates were washed 2× using TBST (use plate washer) and blocked using 200 μl of 0.5% Casein for 1.5-2 hours at room temperature with shaking.
The plates were washed 2× using TBST and the supernatant was transferred (65 μl/well) to the above pre-blocked/IL23(p19)-antibody-coated 96 well plate, and incubated at room temperature for 1.5 hours with shaking.
The plates were washed 4× using TBST (plate washer) and 100 μl/well detection antibody solution prepared from 2 μl of biotin labeled anti-IL-12 (p40/p70) antibody in 11 ml 1% BSA/PBS solution (I-5000 dilution) was added. The plates were incubated for 1 hour with shaking at Room temperature.
Again, the plates were washed 4× with TBST and 100 μl of HRP labeled Streptavidin (R&D Systems) solution (10 μl/10 ml 1% BSA solution) was added, and the plates were incubated at room temperature for another 45 minutes with shaking.
After 45 minutes, the plates were washed with TBST 4× and 100 ul/well Super Signal ELISA Pico Chemiluminescent Substrate from Pierce (3.5 ml A+3.5 ml B+3.5 ml MQ water) was added. The plates were shaken for 1-2 minutes then read on a plate reader.
For orientation: An ELISA detects its analyte on a solid surface through an enzyme-linked reagent.

The next test concerns IL23p19. The test can be described thus: LPS Induced IL23p19 in THP-1 Cells (with IFNγ Primed) Assay. Format: cell-based. As to conditions: Homo sapiens, IFNγ primed (50 ng/mL), LPS 1 ug/mL, 18 hours, 10 pt, read-out: IL23-p19 ELISA, THP1-IFNy, LPS, 10 pt EC50. The text has this:
LPS Induced IL23p19 in THP-1 Cells (with IFNγ Primed) Assay
THP-1 Cells (ATCC, Cat # TIB-202), Dimethyl Sulfoxide (DMSO) (Sigma-Aldrich, Cat # D2650), RPMI 1640 (Cellgro, Cat #10-040-CM), Fetal Bovine Serum (Sigma, Cat # F4135), Albumin From Bovine Serum (BSA) (Sigma-Aldrich, Cat # A7906), LPS (Serotype K-235, Sigma, Product Number L 2143), IFNγ (Peprotech, Cat #300-02)
Capture antibody: Human IL-23p19 ELISA (e-Bioscience, Cat. #14-7238-85),
Detection antibody: Primary Mouse Biotinylated anti-human IL-12(p40/p70) (e-Bioscience, Cat. #13-7129-85), Secondary HRP-conjugated Streptavidin (R&D Systems, Cat # DY998), 1×PBST Washing Buffer (PBS-Tween tablet) (VWR International, Cat #80058-558), ELISA Blocking Buffer (PBS with 1% BSA), ELISA Dilution Buffer (PBS with 1% BSA), 384 Well Flat-Bottom, MaxiSorp Black Immuno Plates (Thermo Scientific, Cat #12-565-346), 384 Well Flat-Bottom, White Tissue Culture Plates (Thermo Scientific, Cat #12-565-343), Super Signal ELISA Pico Chemiluminescent Substrate (Thermo Scientific, Cat #37070), Cell Titer Glo reagent (Promega, Cat # G7573), Positive control, IKK2VI inhibitor (Calbiochem, Cat #401483), AquaMax 4000 plate washer (Molecular Devices), Luminometer, Wallac Victor2 1420 Multilabel Counter. Method THP-1 Cells Stimulation:
On day 1, 50K/well THP-1 cells were seeded and primed with IFNγ (50 ng/mL) in 384-well plates for about 18 hours in RPMI media with 10% FBS. On day 2, the compound was serially diluted in DMSO from 5 mM in 3-fold dilutions, and then diluted 1:125 in RPMI media with 10% FBS. 50 μL/well 2× compound was added to 50 μL/well THP-1 cells (with IFNγ primed) in duplicate in 384 well tissue culture plates. The cells were pre-incubated with compound for 1 hour at 37° C., 5% CO2 before addition of 10 μL/well 11×LPS to give a final concentration of 1 ug/mL LPS. Day 3, after stimulation for 18 hours at 37° C., 5% CO2, the assay plate was centrifuged and 70 μL/well supernatant was harvested. IL-23p19 protein in 70 μL/well of supernatant was measured by sandwich ELISA, and 25 μl/well Cell Titer Glo reagent was added to the remaining cells to measure compound toxicity.
Human IL-23p19 Sandwich ELISA:
Maxisorp immuno ELISA plates were pre-coated with 25 μL/well of anti-IL-23p19 capture antibody (2.5 ug/mL) in PBS overnight at room temperature. After washing with 1×PBST, the plates were blocked using 100 μL/well of 1% BSA in PBS for 2 hours at room temperature. The plates were washed three times with 1×PBST and 70 μL/well supernatant were added. The plates were incubated at room temperature for 2 hours with shaking and washed three times with 1×PBST. 25 μL/well of biotin labeled anti-IL-12(p40/p70) detection antibody (100 ng/mL) in PBS with 1% BSA was added and the plates were incubated at room temperature for 2 hours with shaking. After washing three times with 1×PBST, 25 μL/well of streptavidin-HRP (1:200) in PBS with 1% BSA was added and the plates were incubated at room temperature for 20 minutes with shaking. The plates were washed three times with 1×PBST and 25 μL/well of Super Signal ELISA Pico Chemiluminescent Substrate were added. The plates were read with a luminometer, and the chemiluminescence values were entered into Athena (Rigel) for curve fitting, EC50 calculation, and database storage.

With `Cc1cc(-c2ccc(C(=O)Nc3cc4oc(N5CCOCC5)nc4cc3N3CCCCC3)o2)ccn1` [Compound I-10, 5-(2-methylpyridin-4-yl)-N-(2-morpholino-5-(piperidin-1-yl)benzo[d]oxazol-6-yl)furan-2-carboxamide], the figures for the EC50 with IL23-p19 and in the test on IL23p19 were 2990 nM and 4630 nM, respectively.
On to `O=C(Nc1cc2oc(N3CCOCC3)nc2cc1N1CCCCC1)c1csc(-c2cn[nH]c2)n1` [Compound I-12, N-(2-morpholino-5-(piperidin-1-yl)benzo[d]oxazol-6-yl)-2-(1H-pyrazol-4-yl)thiazole-4-carboxamide], for which the concentration giving a half-maximal response (EC50) – broadly, the concentration giving half of the maximal effect – with IL23-p19 stood at 20 nM; in the test with IL23p19, 53.9 nM.
The matching figures for `Cc1cc(-c2nc(C(=O)Nc3cc4oc(N5CCOCC5)nc4cc3N3CCCCC3)cs2)ccn1` [Compound I-14, 2-(2-methylpyridin-4-yl)-N-(2-morpholino-5-(piperidin-1-yl)benzo[d]oxazol-6-yl)thiazole-4-carboxamide]: 17900 nM and 10200 nM.
On to `CN1CCN(c2nc3cc(N4CCCCC4)c(NC(=O)c4ccc(-c5ccc(N)nc5)o4)cc3o2)CC1` [Compound I-15, 5-(6-aminopyridin-3-yl)-N-(2-(4-methylpiperazin-1-yl)-5-(piperidin-1-yl)benzo[d]oxazol-6-yl)furan-2-carboxamide], for which the EC50 in the test on IL23-p19 amounted to 1690 nM; with IL23p19, 73000 nM.
The corresponding values for `CN1CCN(c2nc3cc(N4CCCCC4)c(NC(=O)c4ccc(-c5cn[nH]c5)o4)cc3o2)CC1` [Compound I-16, N-(2-(4-methylpiperazin-1-yl)-5-(piperidin-1-yl)benzo[d]oxazol-6-yl)-5-(1H-pyrazol-4-yl)furan-2-carboxamide] are 32.2 nM and 25.8 nM.
In the case of `CN1CCN(c2nc3cc(N4CCCCC4)c(NC(=O)c4ccc(-c5cc[nH]n5)o4)cc3o2)CC1` [Compound I-17, N-(2-(4-methylpiperazin-1-yl)-5-(piperidin-1-yl)benzo[d]oxazol-6-yl)-5-(1H-pyrazol-3-yl)furan-2-carboxamide], the EC50 is 1020 nM with IL23-p19 and 1230 nM with IL23p19.
The corresponding values for `Cc1cc(-c2ccc(C(=O)Nc3cc4oc(N5CCN(C)CC5)nc4cc3N3CCCCC3)o2)ccn1` [Compound I-18, N-(2-(4-methylpiperazin-1-yl)-5-(piperidin-1-yl)benzo[d]oxazol-6-yl)-5-(2-methylpyridin-4-yl)furan-2-carboxamide] are 889 nM and 7510 nM.
For `CN1CCN(c2nc3cc(N4CCCCC4)c(NC(=O)c4csc(-c5ccc(N)nc5)n4)cc3o2)CC1` [Compound I-19, 2-(6-aminopyridin-3-yl)-N-(2-(4-methylpiperazin-1-yl)-5-(piperidin-1-yl)benzo[d]oxazol-6-yl)thiazole-4-carboxamide], the EC50 in the test with IL23-p19 was found to be 674 nM; in the test on IL23p19, 938 nM.
`CN1CCN(c2nc3cc(N4CCCCC4)c(NC(=O)c4csc(-c5cn[nH]c5)n4)cc3o2)CC1` [Compound I-20, N-(2-(4-methylpiperazin-1-yl)-5-(piperidin-1-yl)benzo[d]oxazol-6-yl)-2-(1H-pyrazol-4-yl)thiazole-4-carboxamide]: the EC50 is 18 nM with IL23-p19 and 22.4 nM in the test on IL23p19.
In the case of `CN1CCN(c2nc3cc(N4CCCCC4)c(NC(=O)c4csc(-c5cc[nH]n5)n4)cc3o2)CC1` [Compound I-21, N-(2-(4-methylpiperazin-1-yl)-5-(piperidin-1-yl)benzo[d]oxazol-6-yl)-2-(1H-pyrazol-3-yl)thiazole-4-carboxamide], the concentration giving a half-maximal response (EC50) was determined as 1710 nM with IL23-p19 and 2180 nM with IL23p19.
The corresponding values for `Cc1cc(-c2nc(C(=O)Nc3cc4oc(N5CCN(C)CC5)nc4cc3N3CCCCC3)cs2)ccn1` [Compound I-22, N-(2-(4-methylpiperazin-1-yl)-5-(piperidin-1-yl)benzo[d]oxazol-6-yl)-2-(2-methylpyridin-4-yl)thiazole-4-carboxamide] are 3180 nM and 677 nM.
